Results on 1 compound are retold here after ChEMBL document CHEMBL3808337, “Rapid Discovery of Pyrido[3,4-d]pyrimidine Inhibitors of Monopolar Spindle Kinase 1 (MPS1) Using a Structure-Based Hybridization Approach” (J Med Chem, 2016).

The structures appear in SMILES notation.

Data set [1] is described as follows: Half life in Sprague-Dawley rat blood at 5 mg/kg, iv or po […] by ESI-LCMS/MS analysis. It is filed as ADME, organism-based.
Data set [2] in a line: Cmax in Sprague-Dawley rat blood at 5 mg/kg, po after 24 hrs by ESI-LCMS/MS analysis. The data set is classed as ADME, organism-based. Details: dose 5 mg/kg, route oral.
Data set [3] has as its target Voltage-gated inwardly rectifying potassium channel KCNH2 (Homo sapiens, UniProt Q12809). The experiment in a line: Inhibition of human ERG at 1 to 10 uM.
The next data set has as its target T1, Cytochrome P450 2B6 (Homo sapiens, UniProt P20813).
T1 sequence (P20813 whole entry): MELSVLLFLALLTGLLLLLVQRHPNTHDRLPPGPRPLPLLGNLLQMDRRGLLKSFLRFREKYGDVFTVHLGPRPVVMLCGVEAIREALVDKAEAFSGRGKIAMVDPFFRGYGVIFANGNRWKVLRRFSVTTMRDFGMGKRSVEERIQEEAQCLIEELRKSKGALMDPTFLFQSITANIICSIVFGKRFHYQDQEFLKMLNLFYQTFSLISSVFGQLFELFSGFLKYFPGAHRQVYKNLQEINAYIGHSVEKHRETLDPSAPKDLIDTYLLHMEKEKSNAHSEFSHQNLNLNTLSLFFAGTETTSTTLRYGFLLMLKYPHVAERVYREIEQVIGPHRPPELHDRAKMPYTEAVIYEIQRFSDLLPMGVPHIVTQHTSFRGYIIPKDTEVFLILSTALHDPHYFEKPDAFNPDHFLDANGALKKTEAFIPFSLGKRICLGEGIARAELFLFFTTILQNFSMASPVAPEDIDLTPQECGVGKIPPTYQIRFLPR
The experiment in a line: Inhibition of CYP2B6 (unknown origin). It is filed as ADME.

A further data set deals with Cytochrome P450 3A4 (Homo sapiens, UniProt P08684). The experiment in a line: Inhibition of CYP3A4 (unknown origin) using testosterone as substrate. The data set is classed as ADME.
Chain of Cytochrome P450 3A4 (P08684 whole entry): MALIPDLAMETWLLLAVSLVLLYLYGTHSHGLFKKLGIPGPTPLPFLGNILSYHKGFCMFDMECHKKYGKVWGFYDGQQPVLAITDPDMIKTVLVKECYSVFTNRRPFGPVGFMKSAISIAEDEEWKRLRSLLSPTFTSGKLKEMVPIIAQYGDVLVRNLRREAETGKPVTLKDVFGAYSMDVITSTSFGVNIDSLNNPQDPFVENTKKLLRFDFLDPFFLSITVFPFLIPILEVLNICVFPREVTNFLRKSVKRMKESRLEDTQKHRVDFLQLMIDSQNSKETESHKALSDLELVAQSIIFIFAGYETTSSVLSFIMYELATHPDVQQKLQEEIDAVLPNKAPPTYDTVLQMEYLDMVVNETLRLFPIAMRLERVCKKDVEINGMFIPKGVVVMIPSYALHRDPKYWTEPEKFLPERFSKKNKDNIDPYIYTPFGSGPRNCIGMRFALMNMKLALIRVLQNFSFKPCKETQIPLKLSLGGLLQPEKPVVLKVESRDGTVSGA
The next data set addresses T2, Cytochrome P450 2C8 (Homo sapiens, UniProt P10632).
T2 sequence (P10632 whole entry): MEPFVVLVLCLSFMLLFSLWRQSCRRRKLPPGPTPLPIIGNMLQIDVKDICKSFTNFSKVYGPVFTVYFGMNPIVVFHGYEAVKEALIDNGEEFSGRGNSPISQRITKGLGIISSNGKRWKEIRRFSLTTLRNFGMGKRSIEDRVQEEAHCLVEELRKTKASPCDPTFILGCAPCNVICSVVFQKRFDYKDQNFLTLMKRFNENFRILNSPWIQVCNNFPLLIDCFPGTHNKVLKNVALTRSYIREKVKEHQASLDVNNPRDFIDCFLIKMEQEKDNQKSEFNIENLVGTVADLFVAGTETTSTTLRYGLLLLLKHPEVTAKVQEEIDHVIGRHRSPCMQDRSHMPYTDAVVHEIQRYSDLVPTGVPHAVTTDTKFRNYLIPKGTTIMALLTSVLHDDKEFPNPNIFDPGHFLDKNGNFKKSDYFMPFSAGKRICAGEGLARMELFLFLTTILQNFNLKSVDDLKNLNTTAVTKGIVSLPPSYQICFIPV
As to the kind of experiment: Inhibition of CYP2C8 (unknown origin). The data set is classed as ADME.

Data set [4] can be described thus: Half life in Balb/C mouse blood at 5 mg/kg, iv or po after 24 hrs by ESI-LCMS/MS analysis. It is filed as ADME, organism-based.
Data set [5] in a line: Antiproliferative activity against human PNT2 cells assessed as cell viability after 72 hrs by MTT assay. The data set is classed as functional. As to conditions: PNT2, 72 h.
The nature of data set [6]: Plasma protein binding in Balb/C mouse at 5 mg/kg, iv or po after 24 hrs by ESI-LCMS/MS analysis. The data set is classed as ADME, organism-based. To be noted: read-out: PPB (converted).

Chain of Voltage-gated inwardly rectifying potassium channel KCNH2 (Q12809 whole entry): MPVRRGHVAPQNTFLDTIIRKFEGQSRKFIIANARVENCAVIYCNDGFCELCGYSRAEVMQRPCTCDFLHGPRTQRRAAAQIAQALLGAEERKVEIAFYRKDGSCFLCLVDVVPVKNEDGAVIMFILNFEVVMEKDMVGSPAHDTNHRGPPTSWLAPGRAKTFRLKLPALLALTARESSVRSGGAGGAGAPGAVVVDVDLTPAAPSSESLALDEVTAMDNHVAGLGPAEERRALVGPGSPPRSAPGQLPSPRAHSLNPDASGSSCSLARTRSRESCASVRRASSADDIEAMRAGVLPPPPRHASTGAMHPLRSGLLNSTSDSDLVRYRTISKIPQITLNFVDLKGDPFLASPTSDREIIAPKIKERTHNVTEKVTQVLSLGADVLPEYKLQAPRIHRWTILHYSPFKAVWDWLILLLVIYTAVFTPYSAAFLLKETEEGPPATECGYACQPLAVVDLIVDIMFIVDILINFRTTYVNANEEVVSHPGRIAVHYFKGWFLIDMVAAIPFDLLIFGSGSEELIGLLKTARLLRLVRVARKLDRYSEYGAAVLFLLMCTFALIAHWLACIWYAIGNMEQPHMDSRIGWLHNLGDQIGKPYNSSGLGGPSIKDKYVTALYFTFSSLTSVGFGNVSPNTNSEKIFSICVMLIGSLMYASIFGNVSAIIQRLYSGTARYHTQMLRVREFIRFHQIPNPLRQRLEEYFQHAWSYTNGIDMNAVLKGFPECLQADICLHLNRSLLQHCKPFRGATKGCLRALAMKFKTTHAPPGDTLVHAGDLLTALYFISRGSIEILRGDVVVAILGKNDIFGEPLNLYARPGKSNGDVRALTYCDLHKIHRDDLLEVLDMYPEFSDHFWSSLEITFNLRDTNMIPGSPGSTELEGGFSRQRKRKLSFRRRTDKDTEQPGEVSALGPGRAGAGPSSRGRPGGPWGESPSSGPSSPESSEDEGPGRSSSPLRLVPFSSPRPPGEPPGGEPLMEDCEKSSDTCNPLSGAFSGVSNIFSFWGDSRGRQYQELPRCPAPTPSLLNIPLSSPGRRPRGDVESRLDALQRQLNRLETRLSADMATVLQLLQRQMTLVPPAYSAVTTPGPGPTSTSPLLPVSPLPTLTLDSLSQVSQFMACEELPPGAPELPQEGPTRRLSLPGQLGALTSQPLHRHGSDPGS

As to `COc1cc(-c2cnn(C)c2)ccc1Nc1ncc2ccnc(N[C@@H](C)C(C)(C)C)c2n1`, the half-life – broadly, the time needed for the level to fall by half in the phase considered – in data set [1] was 2.5 h; in [4], 8.2 h. In addition, the highest level in data set [2] (Cmax) was 560 nM. Also, the “inhibition (INH)” value (in data set [3]; against Cytochrome P450 2B6; against Cytochrome P450 3A4; at Cytochrome P450 2C8) was “Not Active” throughout. The concentration for 50% growth inhibition (GI50) – broadly, the concentration giving 50% growth inhibition – in [5] amounted to 3.95 µM. Moreover, in [6], the fraction unbound at 24 h is 0.0002.
